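Cells were grown in 96-well plates and exposed to each compound for 48 hours at five concentrations; endpoints were interpolated linearly between bracketing concentrations, or set to the highest concentration if not reached. TGI: total growth inhibition.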
What was measured:
Assay in all cases: NCI tumour cell line growth inhibition, 48 h
786-0 renal = system: 786-0 renal
EKVX NSCLC = system: EKVX NSCLC
HCC-2998 colon = system: HCC-2998 colon
HL-60(TB) leukemia = system: HL-60(TB) leukemia
HOP-62 NSCLC = system: HOP-62 NSCLC
HT29 colon = system: HT29 colon
KM12 colon = system: KM12 colon
MDA-MB-231 breast = system: MDA-MB-231 breast
MDA-N = system: MDA-N
NCI-H226 lung = system: NCI-H226 lung
NCI-H23 lung = system: NCI-H23 lung
OVCAR-5 ovarian = system: OVCAR-5 ovarian
SF-268 CNS = system: SF-268 CNS
SN12C renal = system: SN12C renal
SNB-75 CNS = system: SNB-75 CNS
SW-620 colon = system: SW-620 colon

Compound | TGI (786-0 renal) [µM] | TGI (EKVX NSCLC) [µM] | TGI (HCC-2998 colon) [µM] | TGI (HL-60(TB) leukemia) [µM] | TGI (HOP-62 NSCLC) [µM] | TGI (HT29 colon) [µM] | TGI (KM12 colon) [µM] | TGI (MDA-MB-231 breast) [µM] | TGI (MDA-N) [µM] | TGI (NCI-H226 lung) [µM] | TGI (NCI-H23 lung) [µM] | TGI (OVCAR-5 ovarian) [µM] | TGI (SF-268 CNS) [µM] | TGI (SN12C renal) [µM] | TGI (SNB-75 CNS) [µM] | TGI (SW-620 colon) [µM]
c1ccc2c(c1)CCN1CCc3c([nH]c4ccccc34)C21 (centres undefined) | > 100 | 82.1 | 34 | 34.3 | > 100 | 99.3 | > 100 | > 100 | 73.8 | 97.5 | > 100 | > 100 | > 100 | > 100 | 79 | > 100
COc1ccc(N2CCN(Cc3c(C(C)=O)[n+](=O)c4ccccc4n3[O-])CC2)cc1 | > 100 | > 100 | > 100 | > 100 | > 100 | > 100 | > 100 | > 100 | > 100 | > 100 | > 100 | > 100 | > 100 | > 100 | > 100 | > 100
COC1=CC(=O)c2c(O)ccc(O)c2C1=O | 28 | 37.8 | 9.33 | 23 | 10.9 | 4.41 | 16.4 | 10.1 | 1.9 | 43.8 | 9.32 | 35.7 | 17.9 | 7.55 | 3.65 | 17.7
O=C(Nc1nncs1)NS(=O)(=O)n1cnc2ccccc21 | > 100 | > 100 | > 100 | > 100 | > 100 | > 100 | > 100 | > 100 | > 100 | > 100 | > 100 | > 100 | > 100 | > 100 | > 100 | > 100
C=C(CN(C)C)C(=O)c1cc(C)ccc1C | 11.4 | 55.3 | 29.9 | 0.446 | 33.8 | 29.3 | 38.3 | 36.2 | 21.4 | 27.8 | 33.4 | 31.2 | 68.3 | 42.6 | 43.4 | 5.96
N#CC(C#N)=Cc1ccc(C=C2SC3=C(SCCS3)S2)s1 | > 100 | > 100 | > 100 | 7.03 | > 100 | > 100 | > 100 | > 100 | 3.03 | 9.73 | 95.3 | 35.2 | > 100 | > 100 | 94 | > 100
O=C1C=CC[C@H](/C=C/C[C@@H](O)C[C@H](O)/C=C/c2ccccc2)O1 | 29.6 | 25.2 | 18.6 | 17.7 | 30.9 | 23.5 | 24.7 | 22.2 | 24.9 | 28.7 | 23.5 | 29.5 | 37.7 | 26.9 | 26.4 | 27.4
CC(=O)O[C@H]1[C@H](OC(C)=O)[C@@H](CN=[N+]=[N-])OCO[C@@H]1CN=[N+]=[N-] | > 100 | > 100 | > 100 | > 100 | > 100 | > 100 | > 100 | > 100 | > 100 | > 100 | > 100 | > 100 | > 100 | > 100 | > 100 | > 100
O=c1[nH]cc(N(CCCl)CCCl)c(=O)[nH]1 | 64.8 | 230 | 136 | 36.9 | 81.7 | 306 | 232 | 211 | 153 | 179 | 97.6 | 186 | 192 | 162 | 162 | 249
COc1ccc(C(=O)Cn2c(C(C)=O)nc3ccccc32)cc1 | 33.7 | > 100 | > 100 | > 43.8 | 65.7 | > 100 | > 100 | > 100 | > 100 | > 100 | > 100 | > 100 | > 100 | > 100 | > 100 | > 100
COCC(=O)OC1CCn2c1nc1c2C(=O)C(C)=C(NC(C)=O)C1=N (centres undefined) | 9.3 | 25.3 | 27.7 | 4.54 | 29.2 | > 47.4 | 38.2 | 8.82 | 3.23 | 33.2 | 23.8 | 25.3 | 10.3 | 13.4 | 29 | 6.12
CC1(C)CCCCCC(C)(CCCCCCCCCCCO)C1=O (centres undefined) | 29.8 | 32 | 39.9 | 31.8 | 31.6 | 24.1 | 32.7 | 29.9 | 32.3 | 32.3 | 30.3 | 31.2 | 30.2 | 29.9 | 29.9 | 32.9
O=c1c2ccccc2c2c1c1c3ccccc3c(=O)c1c1c3ccccc3c(=O)c21 | > 100 | > 100 | > 100 | > 100 | > 100 | > 100 | > 100 | > 100 | > 100 | > 100 | > 100 | > 100 | > 100 | > 100 | > 100 | > 100
O=C1c2ccccc2C(=O)c2c1oc(=O)c1ccccc21 | 14 | 14.3 | 6.96 | 1.71 | 24.6 | 13 | 12.8 | 13.8 | 5.7 | 21.2 | 10.6 | 14.4 | 19.7 | 7.91 | 12.3 | > 25
O=C1OC2c3ccccc3C(=O)C2(c2ccccc2)N1c1ccccc1 (centres undefined) | > 200 | > 200 | > 200 | > 200 | > 200 | > 200 | > 200 | > 200 | > 200 | > 200 | > 200 | > 200 | > 200 | > 200 | > 200 | > 200
CC(=O)Nc1ccc(S(=O)(=O)[N-]C2C(=O)c3ccccc3C(=O)C2[n+]2ccccc2)cc1 (centres undefined) | > 100 | > 100 | 43.6 | 40.5 | 35.3 | > 100 | 27.9 | > 100 | 33 | > 100 | 21.5 | 32.3 | 35.5 | > 100 | 30.1 | 32.9
O=NNc1cnccn1 | > 1250 | > 1250 | > 1250 | > 852 | 265 | > 1250 | > 1250 | > 1250 | > 1250 | > 1250 | > 1250 | > 1250 | > 1250 | > 1250 | > 1250 | > 1250
CC(=O)O[C@H]1CC[C@H]2[C@@H]3CCC4=C(C(=O)C=CC4(C)OC(C)=O)[C@H]3CC[C@]12C (some centres undefined) | > 100 | > 100 | > 100 | 97.1 | > 100 | > 100 | > 100 | > 100 | > 100 | > 100 | > 100 | > 100 | > 100 | > 100 | > 100 | > 100
O=C(O)CSc1nnc(CCCCCCCCc2nnc(SCC(=O)O)o2)o1 | > 100 | > 100 | > 100 | > 100 | > 100 | > 100 | > 100 | > 100 | > 100 | > 100 | > 100 | > 100 | > 100 | > 100 | 73.1 | > 100
